According to ChEMBL document CHEMBL1201862, “PubChem BioAssay data set” (2004):
Several values for one entry are separate records, joined by “and”; a condition that tells them apart may be missing. Equal values may be shown once.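 Tested at 5 concentrations; 48 h exposure; 96-well plates; endpoints linearly interpolated, else capped at highest concentration. At the GI50, growth is halved.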 Activity calls are given as the source filed them. Rule as the data show it: active = GI50 up to about 1.1 µM and inactive = higher.

Experiments:
Assay in all cases: inhibition of tumour cell growth, NCI panel, 48 h
SF-268 = test system: SF-268
OVCAR-5 = test system: OVCAR-5
NCI-H460 = test system: NCI-H460
SF-295 = test system: SF-295
M14 = test system: M14
SK-MEL-5 = test system: SK-MEL-5
RPMI-8226 = test system: RPMI-8226
OVCAR-4 = test system: OVCAR-4
Hs-578T = test system: Hs-578T
PC-3 = test system: PC-3
SW-620 = test system: SW-620
K562 = test system: K562
OVCAR-8 = test system: OVCAR-8
T47D = test system: T47D
CAKI-1 = test system: CAKI-1
HOP-92 = test system: HOP-92
HOP-62 = test system: HOP-62
OVCAR-3 = test system: OVCAR-3
NCI-H23 = test system: NCI-H23
UACC-62 = test system: UACC-62

SMILES | GI50 (SF-268) | GI50 (OVCAR-5) | GI50 (NCI-H460) | GI50 (SF-295) | GI50 (M14) | GI50 (SK-MEL-5) | GI50 (RPMI-8226) | GI50 (OVCAR-4) | GI50 (Hs-578T) | GI50 (PC-3) | GI50 (SW-620) | GI50 (K562) | GI50 (OVCAR-8) | GI50 (T47D) | GI50 (CAKI-1) | GI50 (HOP-92) | GI50 (HOP-62) | GI50 (OVCAR-3) | GI50 (NCI-H23) | GI50 (UACC-62)
C=C(Cl)C(Cl)(CBr)CCC(Br)C(C)(C)Cl (stereo not given) | 3.03 µM (inactive) and 735 nM (active) and 1.35 µM (inactive) | 1.93 µM (inactive) and 14.7 µM (inactive) and 3.42 µM (inactive) | 2.34 µM (inactive) and 1.57 µM (inactive) and 1.45 µM (inactive) | 1.79 µM (inactive) and 1.65 µM (inactive) and 1.35 µM (inactive) | 18.7 µM (inactive) and 15.6 µM (inactive) and 26.7 µM (inactive) | 14.9 µM (inactive) and 12.7 µM (inactive) and 12.4 µM (inactive) | 149 nM (active) and 221 nM (active) and 485 nM (active) | 2.92 µM (inactive) and 1.6 µM (inactive) and 10.7 µM (inactive) | 914 nM (active) and 1.11 µM (active) and 665 nM (active) | 1.6 µM (inactive) and 904 nM (active) and 1 µM (active) | 1.91 µM (inactive) and 12.2 µM (inactive) and 1.52 µM (inactive) | 1.33 µM (inactive) and 14.4 µM (inactive) and 863 nM (active) | 6.25 µM (inactive) and 2.03 µM (inactive) and 1.26 µM (inactive) | 3.37 µM (inactive) and 416 nM (active) and 973 nM (active) | 217 nM (active) and 1.02 µM (active) and 828 nM (active) | 2.63 µM (inactive) and 1.42 µM (inactive) and 1.35 µM (inactive) | 703 nM (active) and 785 nM (active) and 1.43 µM (inactive) | 798 nM (active) and 2.23 µM (inactive) and 1.51 µM (inactive) | 22.4 µM (inactive) and 16.3 µM (inactive) and 12 µM (inactive) | 3.72 µM (inactive) and 1.07 µM (active) and 3.47 µM (inactive)
O=C(c1ccccc1)c1ccc(N2C(=O)/C(=C/c3cccc(Oc4ccccc4)c3)N=C2c2ccccc2)c(N2C(=O)/C(=C/c3cccc(Oc4ccccc4)c3)N=C2c2ccccc2)c1 | 36.3 µM (inactive) | 50.6 µM (inactive) | 23.9 µM (inactive) | 25 µM (inactive) | 35.7 µM (inactive) | 13.3 µM (inactive) | 19.3 µM (inactive) | 35.3 µM (inactive) | 26.9 µM (inactive) | 26.5 µM (inactive) | 30.7 µM (inactive) | 9.42 µM (inactive) | 32.1 µM (inactive) | 30.7 µM (inactive) | 41.5 µM (inactive) | 88.5 µM (inactive) | 67.5 µM (inactive) | 18.9 µM (inactive) | 29.6 µM (inactive) | 11.9 µM (inactive)
Cc1n[nH]c(C(F)(F)F)c1/N=N/N1CCOCC1 | 13.1 µM (inactive) | 6.37 µM (inactive) | 4.27 µM (inactive) | 12.6 µM (inactive) | 14.7 µM (inactive) | 2.92 µM (inactive) | 0.873 µM (active) | 5.86 µM (inactive) | 13 µM (inactive) | 7.16 µM (inactive) | 2.32 µM (inactive) | 1.08 µM (active) | 3.76 µM (inactive) | 3.27 µM (inactive) | 1.9 µM (inactive) | 2.42 µM (inactive) | 8.77 µM (inactive) | 7.21 µM (inactive) | 4.06 µM (inactive) | 11 µM (inactive)
CN(C(=O)Nc1ccc(Cl)c(Cl)c1)C1CCCC[C@@H]1N1CCCC1 (stereo not given in full) | 31.6 µM (inactive) | 32.4 µM (inactive) | 36.6 µM (inactive) | 84.7 µM (inactive) | 19.1 µM (inactive) | 16.3 µM (inactive) | 24.7 µM (inactive) | 41.9 µM (inactive) | 33.7 µM (inactive) | 41.4 µM (inactive) | 63.7 µM (inactive) | 24.2 µM (inactive) | 79.3 µM (inactive) | 39.6 µM (inactive) | 70.6 µM (inactive) | 34.4 µM (inactive) | > 100 µM (inactive) | 76.6 µM (inactive) | > 100 µM (inactive) | 22.9 µM (inactive)
C[C@]12CC[C@H](O)CC1=CC[C@@H]1[C@@H]2CC[C@]2(C)C(=N/O)/C(=C/c3ccc([N+](=O)[O-])cc3)C[C@@H]12 | 10.9 µM (inactive) | 1.61 µM (inactive) | 0.519 µM (active) | 0.45 µM (active) | 6.75 µM (inactive) | 1.18 µM (inactive) | 3.59 µM (inactive) | 5.33 µM (inactive) | 12.1 µM (inactive) | 3.22 µM (inactive) | 9.86 µM (inactive) | 3.3 µM (inactive) | 2.82 µM (inactive) | 2.48 µM (inactive) | 7.05 µM (inactive) | 3.29 µM (inactive) | 0.619 µM (active) | 1.76 µM (inactive) | 5.94 µM (inactive) | 10.9 µM (inactive)
O=C1C=C2C(=NC34CCCCC3C(c3ccccc3)C3=C(c5ccccc5CC3)N24)c2ccccc21 (stereo not given) | > 10 µM (inactive) | > 10 µM (inactive) | > 10 µM (inactive) | > 10 µM (inactive) | > 10 µM (inactive) | > 10 µM (inactive) | > 10 µM (inactive) | > 10 µM (inactive) | > 10 µM (inactive) | > 10 µM (inactive) | > 10 µM (inactive) | > 10 µM (inactive) | > 10 µM (inactive) | > 10 µM (inactive) | > 10 µM (inactive) | > 10 µM (inactive) | > 10 µM (inactive) | > 10 µM (inactive) | > 10 µM (inactive) | > 10 µM (inactive)
